Assays:
barley = assay: Test B preemergence/postemergence greenhouse plant response rating 0 to 10; assay type: in vivo, Hordeum vulgare; conditions: for Plant response rating, Barley: 0 to 10 scale
Summary of the method: (§1)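 Test chemicals, dissolved in a non-phytotoxic solvent, were applied to soil at planting and, at the same time, over foliage of seedlings at the one to four leaf stage.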

barnyardgrass = assay: as above; assay type: in vivo, Echinochloa crus-galli; conditions: for Plant response rating, Barnyardgrass: 0 to 10 scale
Summary of the method: as §1

chickweed [1] = assay: as above; assay type: in vivo, Stellaria media; conditions: for Plant response rating, Chickweed: 0 to 10 scale
Summary of the method: as §1

corn = assay: as above; assay type: in vivo, Zea mays; conditions: for Plant response rating, Corn: 0 to 10 scale
Summary of the method: as §1

crabgrass [2] = assay: as above; assay type: in vivo, Digitaria spp.; conditions: for Plant response rating, Crabgrass: 0 to 10 scale
Summary of the method: as §1

giant foxtail [3] = assay: as above; assay type: in vivo, Setaria faberii; conditions: for Plant response rating, Giant foxtail: 0 to 10 scale
Summary of the method: as §1

rape = assay: as above; assay type: in vivo, Brassica napus; conditions: for Plant response rating, Rape: 0 to 10 scale
Summary of the method: as §1

sorghum = assay: as above; assay type: in vivo, Sorghum bicolor; conditions: for Plant response rating, Sorghum: 0 to 10 scale
Summary of the method: as §1

wheat = assay: as above; assay type: in vivo, Triticum aestivum; conditions: for Plant response rating, Wheat: 0 to 10 scale
Summary of the method: as §1

bedstraw = assay: Test C preemergence/postemergence greenhouse plant response rating 0 to 100; assay type: in vivo, Galium aparine; conditions: for Plant response rating, Bedstraw: 125 g/ha, 0 to 100 scale
Summary of the method: (§2)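 Compounds in non-phytotoxic solvent went onto sandy loam before emergence (seeded one day earlier) or onto plants at the one-to-four leaf stage. Duck salad was treated via flood water (~2.5 cm, maintained) over silt loam.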

chickweed [4] = assay: as above; assay type: in vivo, Stellaria media; conditions: for Plant response rating, Chickweed: 125 g/ha, 0 to 100 scale
Summary of the method: as §2

crabgrass [5] = assay: as above; assay type: in vivo, Digitaria sanguinalis; conditions: for Plant response rating, Crabgrass: 125 g/ha, 0 to 100 scale
Summary of the method: as §2

downy brome = assay: as above; assay type: in vivo, Bromus tectorum; conditions: for Plant response rating Downy Brome: 125 g/ha, 0 to 100 scale
Summary of the method: as §2

giant foxtail [6] = assay: as above; assay type: in vivo, Setaria faberii; conditions: for Plant response rating, Giant foxtail: 125 g/ha, 0 to 100 scale
Summary of the method: as §2

wild buckwheat = assay: as above; assay type: in vivo, Polygonum convolvulus; conditions: for Plant response rating, Wild buckwheat: 125 g/ha, 0 to 100 scale
Summary of the method: as §2

wild oat = assay: as above; assay type: in vivo, Avena fatua; conditions: for Plant response rating, Wild oat: 125 g/ha, 0 to 100 scale
Summary of the method: as §2

rice = assay: Test C flood test plant response rating 0 to 100; assay type: in vivo, Oryza sativa
Summary of the method: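 Compounds in non-phytotoxic solvent applied preemergence to sandy loam one day after planting, postemergence at the 1–4 leaf stage, or to ~2.5 cm floodwater over silt loam.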

duck salad = assay: Test C flood test plant response rating 0 to 100; assay type: in vivo, Heteranthera limosa
Summary of the method: as §2

[7] = POSTEMERGENCE section, flood test, Rate 2 g/ha
[8] = Rate 8 g/ha, under POSTEMERGENCE head (flood test species)
[9] = Rate 31 g/ha, under POSTEMERGENCE head (flood test species)
[10] = flood test species listed under POSTEMERGENCE, 125 g/ha, 0 to 100 scale

COCOc1cc(-c2nn3c(c2Cl)CCCC3)c(F)cc1Cl [Compound 58]
2: Plant response rating, Corn (corn; PREEMERGENCE, Rate 50 g/ha) | Plant response rating, Sorghum (sorghum; PREEMERGENCE, Rate 50 g/ha) | Plant response rating, Wheat (wheat; PREEMERGENCE, Rate 50 g/ha)
80: Plant response rating (0 to 100), Duck salad (duck salad; [9])
30: Plant response rating (0 to 100), Crabgrass (crabgrass [5]; Rate 8 g/ha, POSTEMERGENCE) | Plant response rating (0 to 100), Downy Brome (downy brome; Rate 31 g/ha, PREEMERGENCE) | Plant response rating (0 to 100), Wild oat (wild oat; Rate 8 g/ha, POSTEMERGENCE)
40: Plant response rating (0 to 100), Downy Brome (downy brome; Rate 8 g/ha, POSTEMERGENCE) | Plant response rating (0 to 100), Giant foxtail (giant foxtail [6]; Rate 8 g/ha, POSTEMERGENCE) | Plant response rating (0 to 100), Wild buckwheat (wild buckwheat; Rate 8 g/ha, PREEMERGENCE)
100: Plant response rating, Bedstraw (bedstraw; POSTEMERGENCE) | Plant response rating (0 to 100), Bedstraw (bedstraw; Rate 8 g/ha, POSTEMERGENCE) | Plant response rating, Chickweed (chickweed [4]; POSTEMERGENCE) | Plant response rating (0 to 100), Chickweed (chickweed [4]; Rate 31 g/ha, POSTEMERGENCE) | Plant response rating, Crabgrass (crabgrass [5]; PREEMERGENCE) | Plant response rating, Giant foxtail (giant foxtail [6]; POSTEMERGENCE) | Plant response rating, Giant foxtail (giant foxtail [6]; PREEMERGENCE) | Plant response rating, Wild buckwheat (wild buckwheat; POSTEMERGENCE) | Plant response rating (0 to 100), Wild buckwheat (wild buckwheat; POSTEMERGENCE, Rate 2 g/ha) | Plant response rating, Wild buckwheat (wild buckwheat; PREEMERGENCE) | Plant response rating (0 to 100), Wild buckwheat (wild buckwheat; Rate 8 g/ha, POSTEMERGENCE) | Plant response rating (0 to 100), Wild buckwheat (wild buckwheat; Rate 31 g/ha, POSTEMERGENCE) | Plant response rating (0 to 100), Wild buckwheat (wild buckwheat; Rate 31 g/ha, PREEMERGENCE)
3: Plant response rating, Crabgrass (crabgrass [2]; POSTEMERGENCE, Rate 50 g/ha) | Plant response rating, Crabgrass (crabgrass [2]; Rate 200 g/ha, POSTEMERGENCE) | Plant response rating (0 to 10 scale), Sorghum (sorghum; PREEMERGENCE, Rate 200 g/ha)
4: Plant response rating (0 to 10 scale), Barley (barley; PREEMERGENCE, Rate 200 g/ha) | Plant response rating, Barnyardgrass (barnyardgrass; PREEMERGENCE, Rate 50 g/ha) | Plant response rating (0 to 10 scale), Corn (corn; PREEMERGENCE, Rate 200 g/ha) | Plant response rating, Sorghum (sorghum; POSTEMERGENCE, Rate 50 g/ha)
5: Plant response rating, Corn (corn; POSTEMERGENCE, Rate 50 g/ha) | Plant response rating, Rape (rape; PREEMERGENCE, Rate 50 g/ha) | Plant response rating (0 to 10 scale), Rape (rape; PREEMERGENCE, Rate 200 g/ha)
20: Plant response rating (0 to 100), Chickweed (chickweed [4]; POSTEMERGENCE, Rate 2 g/ha) | Plant response rating (0 to 100), Crabgrass (crabgrass [5]; POSTEMERGENCE, Rate 2 g/ha) | Plant response rating (0 to 100), Downy Brome (downy brome; POSTEMERGENCE, Rate 2 g/ha) | Plant response rating (0 to 100), Giant foxtail (giant foxtail [6]; POSTEMERGENCE, Rate 2 g/ha) | Plant response rating (0 to 100), Wild oat (wild oat; POSTEMERGENCE, Rate 2 g/ha) | Plant response rating (0 to 100), Duck salad (duck salad; [8])
10: Plant response rating, Chickweed (chickweed [1]; PREEMERGENCE, Rate 50 g/ha) | Plant response rating (0 to 10 scale), Chickweed (chickweed [1]; PREEMERGENCE, Rate 200 g/ha) | Plant response rating, Chickweed (chickweed [1]; Rate 200 g/ha, POSTEMERGENCE) | Plant response rating (0 to 10 scale), Giant foxtail (giant foxtail [3]; PREEMERGENCE, Rate 200 g/ha) | Plant response rating, Rape (rape; Rate 200 g/ha, POSTEMERGENCE) | Plant response rating (0 to 100), Bedstraw (bedstraw; Rate 8 g/ha, PREEMERGENCE) | Plant response rating (0 to 100), Chickweed (chickweed [4]; PREEMERGENCE, Rate 2 g/ha) | Plant response rating (0 to 100), Chickweed (chickweed [4]; Rate 31 g/ha, PREEMERGENCE) | Plant response rating (0 to 100), Wild oat (wild oat; Rate 31 g/ha, PREEMERGENCE)
1: Plant response rating, Barley (barley; PREEMERGENCE, Rate 50 g/ha)
60: Plant response rating (0 to 100), Bedstraw (bedstraw; POSTEMERGENCE, Rate 2 g/ha) | Plant response rating (0 to 100), Crabgrass (crabgrass [5]; Rate 31 g/ha, POSTEMERGENCE) | Plant response rating (0 to 100), Giant foxtail (giant foxtail [6]; Rate 31 g/ha, PREEMERGENCE)
70: Plant response rating, Bedstraw (bedstraw; PREEMERGENCE) | Plant response rating, Chickweed (chickweed [4]; PREEMERGENCE) | Plant response rating (0 to 100), Chickweed (chickweed [4]; Rate 8 g/ha, POSTEMERGENCE) | Plant response rating, Crabgrass (crabgrass [5]; POSTEMERGENCE) | Plant response rating Downy Brome (downy brome; PREEMERGENCE) | Plant response rating (0 to 100), Downy Brome (downy brome; Rate 31 g/ha, POSTEMERGENCE) | Plant response rating (0 to 100), Giant foxtail (giant foxtail [6]; Rate 31 g/ha, POSTEMERGENCE)
75: Plant response rating, Wild oat (wild oat; POSTEMERGENCE) | Plant response rating, Wild oat (wild oat; PREEMERGENCE)
9: Plant response rating, Barnyardgrass (barnyardgrass; Rate 200 g/ha, POSTEMERGENCE) | Plant response rating, Chickweed (chickweed [1]; POSTEMERGENCE, Rate 50 g/ha) | Plant response rating (0 to 10 scale), Crabgrass (crabgrass [2]; PREEMERGENCE, Rate 200 g/ha) | Plant response rating, Giant foxtail (giant foxtail [3]; PREEMERGENCE, Rate 50 g/ha) | Plant response rating, Rape (rape; POSTEMERGENCE, Rate 50 g/ha)
85: Plant response rating Duck salad (duck salad; [10])
0: Plant response rating, Crabgrass (crabgrass [2]; PREEMERGENCE, Rate 50 g/ha) | Plant response rating (0 to 100), Bedstraw (bedstraw; PREEMERGENCE, Rate 2 g/ha) | Plant response rating (0 to 100), Crabgrass (crabgrass [5]; PREEMERGENCE, Rate 2 g/ha) | Plant response rating (0 to 100), Crabgrass (crabgrass [5]; Rate 8 g/ha, PREEMERGENCE) | Plant response rating (0 to 100), Downy Brome (downy brome; PREEMERGENCE, Rate 2 g/ha) | Plant response rating (0 to 100), Downy Brome (downy brome; Rate 8 g/ha, PREEMERGENCE) | Plant response rating (0 to 100), Giant foxtail (giant foxtail [6]; PREEMERGENCE, Rate 2 g/ha) | Plant response rating (0 to 100), Giant foxtail (giant foxtail [6]; Rate 8 g/ha, PREEMERGENCE) | Plant response rating (0 to 100), Wild buckwheat (wild buckwheat; PREEMERGENCE, Rate 2 g/ha) | Plant response rating (0 to 100), Wild oat (wild oat; PREEMERGENCE, Rate 2 g/ha) | Plant response rating (0 to 100), Wild oat (wild oat; Rate 8 g/ha, PREEMERGENCE) | Plant response rating (0 to 100), Rice Japonica (rice; [7]) | Plant response rating (0 to 100), Rice Japonica (rice; [8]) | Plant response rating (0 to 100), Rice Japonica (rice; [9]) | Plant response rating (0 to 100), Duck salad (duck salad; [7])
7: Plant response rating (0 to 10 scale), Barnyardgrass (barnyardgrass; PREEMERGENCE, Rate 200 g/ha) | Plant response rating, Wheat (wheat; POSTEMERGENCE, Rate 50 g/ha) | Plant response rating (0 to 10 scale), Wheat (wheat; PREEMERGENCE, Rate 200 g/ha)
8: Plant response rating, Barley (barley; Rate 200 g/ha, POSTEMERGENCE) | Plant response rating, Wheat (wheat; Rate 200 g/ha, POSTEMERGENCE)
90: Plant response rating Downy Brome (downy brome; POSTEMERGENCE)
6: Plant response rating, Barley (barley; POSTEMERGENCE, Rate 50 g/ha) | Plant response rating, Barnyardgrass (barnyardgrass; POSTEMERGENCE, Rate 50 g/ha) | Plant response rating, Corn (corn; Rate 200 g/ha, POSTEMERGENCE) | Plant response rating, Giant foxtail (giant foxtail [3]; POSTEMERGENCE, Rate 50 g/ha) | Plant response rating, Giant foxtail (giant foxtail [3]; Rate 200 g/ha, POSTEMERGENCE) | Plant response rating, Sorghum (sorghum; Rate 200 g/ha, POSTEMERGENCE)
50: Plant response rating (0 to 100), Bedstraw (bedstraw; Rate 31 g/ha, PREEMERGENCE) | Plant response rating (0 to 100), Crabgrass (crabgrass [5]; Rate 31 g/ha, PREEMERGENCE) | Plant response rating (0 to 100), Wild oat (wild oat; Rate 31 g/ha, POSTEMERGENCE) | Plant response rating Rice Japonica (rice; [10])
